{"source": "patent US11130959B2", "about": "“Methods and compositions for combinations of mutations associated with herbicide resistance/tolerance in rice” (priority 2016, dated 2021)", "key": {"[1]": {"test_system": "rice line ML0831266-03093 (HPPDi + HPPDni)", "assay": "Mesotrione tolerance trials", "method": "FIG. 4 is a graphical representation of results of a trait tolerance trial wherein mesotrione was applied at the indicated rates about 34 days after planting.\nIn particular, a rate response experiment was conducted in which two different rates of mesotrione were applied pre-emergence, plus an additional foliar application was also applied.\nFurther validation of the trait involved testing the mutant line ML0831266-03093 in the presence of common rice weeds.\nThe mutant line is planted in rows or alternatively whole plots are planted and rows of the unmutated line (P1003) and other types of rice or whole plots are planted. Mesotrione is applied pre-emergence or alternatively it is applied post-emergence at the three to four leaf stage of the rice plants. Various rates of mesotrione are applied pre-emergence, pre-emergence followed by post-emergent, or post-emergent with a single or sequential application. Post-emergent applications are applied at the 3-4 leaf stage of the rice."}, "[2]": {"test_system": "rice line P1003 (unmutated parent)", "assay": "Mesotrione tolerance trials", "type": "in vivo, Oryza sativa"}, "[3]": {"test_system": "rice line ML0831265-01493", "assay": "Mesotrione tolerance trials", "type": "in vivo, Oryza sativa"}, "[4]": {"test_system": "rice line R0146 (unmutated)", "assay": "Mesotrione tolerance trials", "type": "in vivo, Oryza sativa", "conditions": "low rates (105 gm ai/ha)"}, "[5]": {"test_system": "F2 individuals from cross ML0831266-03093 x ML0831265-01493", "assay": "Herbicide bioassays on F2 individuals (Table 3)", "type": "in vivo, Oryza sativa", "excerpt": "In the population sprayed with 105 gm ai/ha a single QTL found on chromosome 2 with strong linkage to SNP marker BG-id2004662 acted in a mostly dominate manner. This marker and QTL identifies the inherent tolerance in line P1003. The marker is useful for breeding and selection of new mesotrione tolerant lines. The discovery of this QTL facilitates commercial development of new rice varieties with a new method for controlling weeds through the use of mesotrione herbicide. The finding of the linked marker BG-id2004662 is a novel finding and selection strategy for breeding and selecting the tolerance to mesotrione and other herbicides derived from line P1003.\nCombining the HPPD tolerance with the ACCase tolerance into a single rice line was initiated with the HPPD tolerance mapping project by crossing the HPPD tolerant line ML0831266-03093 to the ACCase tolerant line ML0831265-01493. In mapping the F2 population plants were selected for HPPD tolerance by applying mesotrione first at a low rate (105 gmai/ha) followed by a high rate (630 gmai/ha). In this process molecular markers were also developed allowing future selection of HPPD tolerance by either markers or herbicide tolerance screening or both.\nIn one example a rate of 105 gm ai/ha is applied followed three weeks later by a second application of 630 gm ai/ha. In another example a rate of 420 gm ai/ha is applied in a single application. Yet another example entails applying the herbicide at a rate of 630 gm ai/ha. Herbicide applications are done at the three to four leaf stage of seedling growth. The ideal situation is to have also planted near or within the F2 population a set of plants from the original mutant mesotrione donor line ML0831266-03093, a row of plants of the wild-type of the mutation line, P1003, and a row of the line involved as the other parent ML0831265-01493. These control lines will allow easy differentiation for inheritance of the tolerance provided by the ML0831266-03093 mutant line through comparison of the response in the F2 plants to these control lines. Only plants that live and are relatively healthy will have inherited and be homozygous for the tolerance level provided by the ML0831266-03093 mutant line."}, "[6]": {"test_system": "common weeds in rice (grass weeds such as barnyard grass)", "assay": "Weed control in rice crops", "type": "in vivo", "method": "FIGS. 5A and 5B are photographs of results of trait tolerance trials; weed control by mesotrione herbicide applied pre-planting was evaluated; the plots were planted with a hybrid of the HPPD tolerant line ML0831266-03093; just before planting, the plot on the right FIG. 5B received an application of mesotrione at 210 gmai/ha; the plot on the left FIG. 5A had no herbicide applied either pre-plant or post-emergence; pictures were taken four weeks after planting showing differences in weed appearance.\nWhile testing the tolerant lines, the parent lines were also tested to serve as controls and as an indication of commercial potential as a red rice/wild weedy rice control strategy.\nRice is tolerant to certain ACCase inhibitor herbicides, for example cyhalofop is registered for use in rice. However other ACCase herbicides kill or severely injure rice to varying degrees. […] The applied rates of both types of herbicides giving the weed control are well within the tolerance level of the respective ACCase and HPPD tolerant lines including the combined lines carrying tolerance to both HPPD and ACCase herbicides."}, "[7]": {"test_system": "rice line PL1214418M2-73009", "assay": "Trial of recovery of HPPD tolerance in the combined line", "type": "in vivo, Oryza sativa", "conditions": "0.5×, 1×, 2×, 4× of 210 gmai/ha and sequential 1× and 2×", "method": "Two trials were conducted to measure recovery of tolerance to both ACCase and HPPD herbicides in the new line PL1214418M2-73009. Recovery of tolerance in the line combining the two traits will illustrate that the traits are heritable and can be used to produce new varieties and hybrids carrying herbicide resistance. These trials are important as often times it is difficult to recover complex QTLs for quantitative traits or in some cases a traits response is dependent upon the genetic background. In the first trail the lines resistance to mesotrione (HPPD herbicide) was evaluated by planting line PL1214418M2-73009, the HPPD resistant line ML0831266-03093 and wild-type rice line P1003 and R0146 in plots (5 feet×10 feet). Mesotrione was applied at 0.5×, 1×, 2×, and 4× multiples of the labeled application rate (210 gmai/ha). Two additional treatments were included with a 1× and 2× rate followed by a second application 14 days afterward with the same rates."}, "[8]": {"test_system": "rice line PL1214418M2-73001 (HPPD mutation only)", "assay": "Contribution of single HPPD tolerance genes, field rows sprayed at 4 leaf stage", "type": "in vivo, Oryza sativa", "conditions": "0.5×-4× of 210 gmai/ha, 4 weeks after application", "excerpt": "(§1) During the breeding process to develop new lines (PL1214418M2-80048 and PL1214418M2-73009) with resistance/tolerance to HPPD and ACCase herbicides, two other lines were also investigated to determine the contribution of the HPPD tolerance mutation and the HPPD tolerance native gene. The line PL1214418M2-73001 carries ACCase tolerance and only the HPPD tolerance, whereas […] PL1214418M2-73013 carries ACCase tolerance and only the HPPD native tolerance gene. These selections allow the estimation of the tolerance effect of each of the two genes required for tolerance to HPPD herbicides. The tolerance effect of each gene was measured by growing the lines in single rows including the newly developed line PL1214418M2-73009 that carries both the HPPD tolerance from the mutation and the non-induced tolerance, the HPPD tolerant line ML0831266-0309, and the non-induced parent line P1003. The field plots were sprayed at the 4 leaf stage with the HPPD herbicide mesotrione at 0.5×, 1×, 2×, and 4× multiples of the labeled application rate of 210 gmai/ha."}, "[9]": {"test_system": "rice line PL1214418M2-73013 (HPPD native tolerance gene only)", "assay": "Contribution of single HPPD tolerance genes, field rows sprayed at 4 leaf stage", "type": "in vivo, Oryza sativa", "conditions": "0.5×-4× of 210 gmai/ha, 4 weeks after application", "excerpt": "as §1"}, "[10]": {"conditions": "105 gai/ha followed by second application of 630 gai/ha"}, "[11]": {"conditions": "single application at 105 gai/ha"}, "[12]": {"conditions": "single application at 420 gai/ha"}}}
{"smiles": "CS(=O)(=O)c1ccc(C(=O)C2C(=O)CCCC2=O)c([N+](=O)[O-])c1", "note": "[mesotrione]", "values": [{"measurement": "rate over which even lines with genetic resistance may be injured", "setting": "[1]; FIG. 4 trial, 4 weeks after application", "value": "over 420 gmai/ha"}, {"measurement": "tolerance of the crop in the presence of common rice weeds", "setting": "[1]; applied rates", "value": "completely tolerant"}, {"measurement": "survival", "setting": "[1]; higher rates", "value": "survives"}, {"measurement": "survival", "setting": "[1]; low rates (105 gm ai/ha)", "value": "survive"}, {"measurement": "survival", "setting": "[2]; higher rates", "value": "killed or severally injured"}, {"measurement": "survival", "setting": "[2]; low rates (105 gm ai/ha)", "value": "survive"}, {"measurement": "sensitivity", "setting": "[3]; in vivo", "value": "highly sensitive"}, {"measurement": "survival", "setting": "[3]; low rates (105 gm ai/ha)", "value": "killed"}, {"measurement": "survival", "setting": "[4]", "value": "killed"}, {"measurement": "Observed number of Susceptible plants", "setting": "[5]; [10]", "value": 67}, {"measurement": "Observed number of Tolerant plants", "setting": "[5]; [10]", "value": 28}, {"measurement": "Observed number of Susceptible plants", "setting": "[5]; [11]", "value": 23}, {"measurement": "Observed number of Tolerant plants", "setting": "[5]; [11]", "value": 64}, {"measurement": "Observed number of Susceptible plants", "setting": "[5]; [12]", "value": 52}, {"measurement": "Observed number of Tolerant plants", "setting": "[5]; [12]", "value": 26}, {"measurement": "control of common weeds in rice", "setting": "[6]; alone, especially pre-plant or at 2× the labeled rate of 210 gmai/ha", "value": "Control of common weeds in rice was also achieved"}, {"measurement": "control of prevalent weed population", "setting": "[6]; plots with line ML0831266-03093", "value": "well controlled"}, {"measurement": "response compared with original trait line ML0831266-03093", "setting": "[7]", "value": "same response"}, {"measurement": "tolerance level between P1003 and ML0831266-0309", "setting": "[8]", "value": "intermediate tolerance"}, {"measurement": "tolerance level", "setting": "[9]", "value": "tolerance levels similar to the parent line P1003"}]}
